According to patent US7763602B2, “Pyrrole derivatives as antimycobacterial compounds” (priority 2002, dated 2010):
Converted amounts (≈) assume the structure as drawn. Where two headings read alike, the source gives them in different places.

Legend:
[1] = tested on: M. tuberculosis H37Rv ATCC 27294; experiment: In vitro growth inhibition assay, BACTEC 460 TB system; assay type: cell-based, Mycobacterium tuberculosis; set-up: key: +: If ΔGI of test vial is less than that of the control vial the culture was sensitive to the test compound; settings: final concentration 6.25 μg/ml
[2] = tested on: M. tuberculosis clinical isolates, sensitive; experiment: microbe, parasite or virus in culture; assay type: cell-based, Mycobacterium tuberculosis; settings: for MIC: Mycobacterium tuberculosis; for MIC (μg/ml) against Clinical isolates Sensitive: Table I, agar dilution
[3] = tested on: M. avium-intracellulare complex; experiment: In vitro agar dilution assay (MIC), M. avium-intracellulare complex; assay type: cell-based; settings: Mycobacterium avium-intracellulare; Table II; 13 strains; read-out: MIC (μg/ml) M. avium-intracellulare complex (n = 13)
[4] = tested on: M. tuberculosis 27294; experiment: In vitro agar dilution assay (MIC), reference strain; assay type: cell-based, Mycobacterium tuberculosis; settings: for MIC: Mycobacterium tuberculosis, 27294, Table I, read-out: MIC (μg/ml) against M. tuberculosis-27294; for MIC (μg/ml) against M. tuberculosis-27294: Table I
[5] = tested on: M. fortuitum; experiment: In vitro agar dilution assay (MIC), M. fortuitum; assay type: cell-based, Mycobacterium fortuitum; settings: Mycolicibacterium fortuitum; Table II; 8 strains; read-out: MIC (μg/ml) M. fortuitum (n = 8)
[6] = tested on: M. kansasii; experiment: In vitro agar dilution assay (MIC), M. kansasii; assay type: cell-based; settings: Mycobacterium kansasii; Table II; 2 strains; read-out: MIC (μg/ml) M. kansasii (n = 2)
[7] = tested on: M. tuberculosis H37Rv ATCC 27294; experiment: Murine model of pulmonary tuberculosis, treated 01 day post-infection; settings: Table VI; for Mean Log10 No. of CFU Lung / Mean Log10 No. of CFU Spleen: 5 day/week for 4 week, treated 01 day post-infection; for Mean Log10 No. of reduction Lung / Mean Log10 No. of reduction Spleen: difference from early controls
[8] = Acute toxicity study in mice; assay type: in vivo, Swiss albino mice; settings: single oral dose, mice, observed for 14 days
Description: Compound No. 3 of formula (I) was administered, as a single oral dose, in Swiss albino mice. Two dose levels of 500 and 2000 mg/kg were employed. […] Therefore LD0 was >2000 mg/kg by oral route in mice. […] Similarly in compound No. 12 of Formula I, LD0 was >500 mg/kg by oral route in mice.

[9] = tested on: M. tuberculosis H37Rv ATCC 27294; experiment: Murine model of pulmonary tuberculosis, treated 14 days post-infection; settings: Table IV; for Mean Log10 No. of CFU Lung / Mean Log10 No. of CFU Spleen: 5 day/week for 4 week, treated 14 days post-infection; for Mean Log10 no. of reduction Lung / Mean Log10 no. of reduction Spleen: difference from early controls
[10] = read-out: MIC (μg/ml) M. tuberculosis Sensitive (n = 17)
[11] = read-out: MIC (μg/ml) against Clinical isolates Sensitive

## Cc1cc(CN2CCN(C(c3ccccc3)c3ccccc3)CC2)c(-c2ccc(Cl)cc2)n1-c1ccc(F)cc1F
other
  melting point: 76 to 78 °C

## Cc1cc(CN2CCN(c3ccccn3)CC2)c(-c2ccccc2)n1-c1ccccn1
other
  melting point: 135 to 137 °C

## COc1ccccc1N1CCN(Cc2cc(-c3ccc(Cl)cc3)n(-c3ccc(Cl)cc3)c2C)CC1 [Compound No. 2, 1-{[1,5-bis(4-chlorophenyl)-2-methylpyrrol-3-yl]methyl}-4-(2-methoxyphenyl) piperazine]
[1]
  Growth inhibition of M. tuberculosis 27294: +
[2]; [10]
  MIC: 0.125 to 0.25 µg/mL (≈ 0.247 to 0.494 µM)
[2]; [11]
  MIC: 0.125 to 0.25 µg/mL (≈ 0.247 to 0.494 µM)
[3]
  MIC: 4 to 8 µg/mL (≈ 7.9 to 15.8 µM)
[4]
  MIC: 0.25 µg/mL (≈ 0.494 µM)
[5]
  MIC: 8 to 16 µg/mL (≈ 15.8 to 31.6 µM)
[6]
  MIC: 8 µg/mL (≈ 15.8 µM)

## Cc1c(CN2CCN(c3cccc(C(F)(F)F)c3)CC2)cc(-c2ccccc2)n1NC(=O)c1ccncc1 [Compound No. 12, N-(3-{[4-(3-trifluoromethylphenyl)piperazinyl]methyl}-2-methyl-5-phenylpyrrolyl)-4-pyridylcarboxamide]
[1]
  Growth inhibition of M. tuberculosis 27294: +
[2]
  MIC (μg/ml) against Clinical isolates Sensitive: 0.25 to 0.5 µg/mL
[7]; 12.5 mg/kg
  Mean Log10 No. of CFU Lung: 2.34 ± 0.18
  Mean Log10 No. of CFU Spleen: 2.26 ± 0.21
  Mean Log10 No. of reduction Lung: 2.23
  Mean Log10 No. of reduction Spleen: 2.43
[7]; 25 mg/kg
  Mean Log10 No. of CFU Lung: 2.1 ± 0.24
  Mean Log10 No. of CFU Spleen: 2.13 ± 0.28
  Mean Log10 No. of reduction Lung: 2.47
  Mean Log10 No. of reduction Spleen: 2.56
[7]; 50 mg/kg
  Mean Log10 No. of CFU Lung: 1.89 ± 0.24
  Mean Log10 No. of CFU Spleen: 1.94 ± 0.23
  Mean Log10 No. of reduction Lung: 2.68
  Mean Log10 No. of reduction Spleen: 2.75
[4]
  MIC (μg/ml) against M. tuberculosis-27294: 0.25 µg/mL (≈ 0.481 µM)
[8]
  LD0: > 500 mg/kg
[9]; 12.5 mg/kg
  Mean Log10 No. of CFU Lung: 4.18 ± 0.38
  Mean Log10 No. of CFU Spleen: 4.41 ± 0.26
  Mean Log10 no. of reduction Lung: 1.41
  Mean Log10 no. of reduction Spleen: 1.54
[9]; 25 mg/kg
  Mean Log10 No. of CFU Lung: 2.87 ± 0.15
  Mean Log10 No. of CFU Spleen: 2.83 ± 0.29
  Mean Log10 no. of reduction Lung: 2.72
  Mean Log10 no. of reduction Spleen: 3.12
[9]; 50 mg/kg
  Mean Log10 No. of CFU Lung: 2.74 ± 0.36
  Mean Log10 No. of CFU Spleen: 2.78 ± 0.32
  Mean Log10 no. of reduction Lung: 2.85
  Mean Log10 no. of reduction Spleen: 3.17

## Cc1c(CN2CCN(c3ncccn3)CC2)cc(-c2ccc(Cl)cc2)n1-c1ccc(Cl)cc1 [compound 5, 1-{[1,5-bis(4-chlorophenyl)-2-methylpyrrol-3-yl]methyl}-4-(2-pyrimidyl) piperazine]
[1]
  Growth inhibition of M. tuberculosis 27294: +
[2]; [10]
  MIC: 0.5 to 1 µg/mL (≈ 1.05 to 2.09 µM)
[2]; [11]
  MIC: 0.5 to 1 µg/mL (≈ 1.05 to 2.09 µM)
[3]
  MIC: 4 to 8 µg/mL (≈ 8.36 to 16.7 µM)
[4]
  MIC: 0.25 µg/mL (≈ 0.523 µM)
[5]
  MIC: 8 to 16 µg/mL (≈ 16.7 to 33.4 µM)
other
  melting point: 184 to 186 °C
[6]
  MIC: 8 µg/mL (≈ 16.7 µM)

## Cc1c(CN2CCN(Cc3ccc4c(c3)OCO4)CC2)cc(-c2ccc(Cl)cc2)n1-c1ccc(F)cc1F [compound 50, 5-[(4-{[1-(2,4-difluorophenyl)-5-(4-chlorophenyl)-2-methylpyrrol-3-yl]-methyl}-piperazinyl)methyl]-2H-benzo[d]1,3-dioxolane]
[1]
  Growth inhibition of M. tuberculosis 27294: +
[2]
  MIC (μg/ml) against Clinical isolates Sensitive: 2.0 to 4.0 µg/mL
[4]
  MIC (μg/ml) against M. tuberculosis-27294: 2.0 µg/mL (≈ 3.73 µM)

## COc1ccccc1N1CCN(Cc2cc(-c3ccccc3)n(-c3ccc(F)cc3F)c2C)CC1 [compound 52, 1-{[1-(2,4-difluorophenyl)-2-methyl-5-phenylpyrrol-3-yl]methyl}-4-(2-methoxyphenyl)piperazine]
[1]
  Growth inhibition of M. tuberculosis 27294: +
[2]; [11]
  MIC: 8 µg/mL (≈ 16.9 µM)
[4]
  MIC: 8 µg/mL (≈ 16.9 µM)

## Cc1c(CN2CCN(c3ccccn3)CC2)cc(-c2ccccc2)n1-c1ccc(F)cc1F [compound 54, 1-{[1-(2,4-difluorophenyl)-2-methyl-5-phenylpyrrol-3-yl]methyl}-4-(2-pyridyl) piperazine]
[1]
  Growth inhibition of M. tuberculosis 27294: +
[2]; [11]
  MIC: 4 µg/mL (≈ 9 µM)
[4]
  MIC: 2 µg/mL (≈ 4.5 µM)
other
  melting point: 144 to 146 °C

## COc1ccccc1N1CCN(Cc2cc(C)n(-c3ccc(F)cc3F)c2-c2ccccc2)CC1 [compound 56, 1-{[1-(2,4-difluorophenyl)-5-methyl-2-phenylpyrrol-3-yl]methyl}-4-(2-methoxyphenyl) piperazine]
[1]
  Growth inhibition of M. tuberculosis 27294: +
[2]; [11]
  MIC: 8 µg/mL (≈ 16.9 µM)
[4]
  MIC: 8 µg/mL (≈ 16.9 µM)
other
  melting point: 60 to 62 °C

## Cc1cc(CN2CCN(c3cccc(C(F)(F)F)c3)CC2)c(-c2ccccc2)n1-c1ccc(F)cc1F [compound 57, 1-{[1-(2,4-difluorophenyl)-5-methyl-2-phenylpyrrol-3-yl]methyl}-4-(3-trifluoromethylphenyl)piperazine]
[1]
  Growth inhibition of M. tuberculosis 27294: +
[2]; [11]
  MIC: > 16 µg/mL
[4]
  MIC: > 16 µg/mL

## Cc1cc(CN2CCN(c3ccccn3)CC2)c(-c2ccccc2)n1-c1ccc(F)cc1F [compound 58, 1-{[1-(2,4-difluorophenyl)-5-methyl-2-phenylpyrrol-3-yl]methyl}-4-(2-pyridyl) piperazine]
[1]
  Growth inhibition of M. tuberculosis 27294: +
[2]; [11]
  MIC: 8 µg/mL (≈ 18 µM)
[4]
  MIC: 8 µg/mL (≈ 18 µM)

## Cc1c(CN2CCN(c3cccc(C(F)(F)F)c3)CC2)cc(-c2ccc(Cl)cc2)n1-c1cccc2ccccc12 [compound 60, 1-{[5-(4-chlorophenyl)-2-methyl-1-naphthylpyrrol-3-yl]methyl}-4-(3-trifluoromethylphenyl)piperazine]
[1]
  Growth inhibition of M. tuberculosis 27294: +
[2]
  MIC (μg/ml) against Clinical isolates Sensitive: 2.0 to 8.0 µg/mL
[4]
  MIC (μg/ml) against M. tuberculosis-27294: 4.0 µg/mL (≈ 7.14 µM)

## Cc1c(CN2CCN(c3ccccn3)CC2)cc(-c2ccc(Cl)cc2)n1-c1cccc2ccccc12 [compound 61, 1-{[5-(4-chlorophenyl)-2-methyl-1-naphthylpyrrol-3-yl]methyl}-4-(2-pyridyl) piperazine]
[1]
  Growth inhibition of M. tuberculosis 27294: +
[2]
  MIC (μg/ml) against Clinical isolates Sensitive: 4.0 to 8.0 µg/mL
[4]
  MIC (μg/ml) against M. tuberculosis-27294: 4.0 µg/mL (≈ 8.11 µM)

## Cc1c(CN2CCN(Cc3ccc4c(c3)OCO4)CC2)cc(-c2ccc(Cl)cc2)n1-c1cccc2ccccc12 [compound 62, 5-[(4-{[5-(4-chlorophenyl)-2-methyl-1-naphthylpyrrol-3-yl]methyl}-piperazinyl)methyl]-2H-benzo[d]1,3-dioxolane]
[1]
  Growth inhibition of M. tuberculosis 27294: +
[2]
  MIC (μg/ml) against Clinical isolates Sensitive: >16.0 µg/mL
[4]
  MIC (μg/ml) against M. tuberculosis-27294: >16.0 µg/mL

## COc1ccccc1N1CCN(Cc2cc(C)n(-c3cccc4ccccc34)c2-c2ccc(Cl)cc2)CC1 [compound 63, 1-{[2-(4-chlorophenyl)-5-methyl-1-naphthylpyrrol-3-yl]methyl}-4-(2-methoxyphenyl)piperazine]
[1]
  Growth inhibition of M. tuberculosis 27294: +
[2]
  MIC (μg/ml) against Clinical isolates Sensitive: 4.0 to 8.0 µg/mL
[4]
  MIC (μg/ml) against M. tuberculosis-27294: 8.0 µg/mL (≈ 15.3 µM)

## Cc1c(CN2CC[S+]([O-])CC2)cc(-c2ccccc2)n1-c1ccccc1 [compound 87, 4-[(2-methyl-1,5-diphenylpyrrol-3-yl)methyl]1,4-thiazaperhydroin-1-one]
[1]
  Growth inhibition of M. tuberculosis 27294: +
[2]
  MIC (μg/ml) against Clinical isolates Sensitive: 8.0 to 16.0 µg/mL
[4]
  MIC (μg/ml) against M. tuberculosis-27294: 8.0 µg/mL (≈ 21.9 µM)

## Cc1c(CN2CCS(=O)(=O)CC2)cc(-c2ccccc2)n1-c1ccccc1 [compound 88]
[1]
  Growth inhibition of M. tuberculosis 27294: +
[2]
  MIC (μg/ml) against Clinical isolates Sensitive: 1.0 to 4.0 µg/mL
[4]
  MIC (μg/ml) against M. tuberculosis-27294: 0.5 µg/mL (≈ 1.31 µM)

## Cc1c(CN2CCSCC2)cc(-c2ccc(Cl)cc2)n1NC(=O)c1ccncc1 [compound 89, N-[5-(4-chlorophenyl)-2-methyl-3-(1,4-thiazaperhydroin-4-ylmethyl)pyrrolyl]-4-pyridylcarboxamide]
[1]
  Growth inhibition of M. tuberculosis 27294: +
[2]
  MIC (μg/ml) against Clinical isolates Sensitive: 2.0 to 8.0 µg/mL
[4]
  MIC (μg/ml) against M. tuberculosis-27294: 1.0 µg/mL (≈ 2.34 µM)

## CCC(CO)n1c(-c2ccccc2)cc(CN2CCSCC2)c1C (centres unmarked) [compound 91, 2-[2-methyl-5-phenyl-3-(1,4-thiazaperhydroin-4-ylmethyl)pyrrolyl]butan-1-ol]
[1]
  Growth inhibition of M. tuberculosis 27294: +
[2]
  MIC (μg/ml) against Clinical isolates Sensitive: 4.0 to 8.0 µg/mL
[4]
  MIC (μg/ml) against M. tuberculosis-27294: 4.0 µg/mL (≈ 11.6 µM)
